Tests used:
[1] = target: T1, interaction of ICAM-1 with the Leukointegrin CD18/CD11a (LFA-1) (Homo sapiens, UniProt P05107+P20701); assay: Assay to determine inhibition of LFA-1 binding to ICAM-1 (immunopurified LFA-1 on plate-bound sICAM-1, ELISA readout); settings: values marked e approximated from incomplete dose-response curve
T1 construct: endogenous in cells; sICAM-1: made in house, secreted from transfected CHO DUX cells
Description: Assay to Determine Inhibition of LFA-1 Binding to ICAM-1 Purpose of Assay: This assay protocol is designed to study the direct antagonism, by a test compound, of the interaction of the CAM, ICAM-1 with the Leukointegrin CD18/CD11a (LFA-1). […] After collection and neutralization of fractions from the TS2/4 column, samples are pooled and precleared with Protein G agarose. […] Wells are washed 3 times with Diluting Buffer. The bound LFA-1 is detected by the addition of a polyclonal antibody directed against a peptide corresponding to the CD18 cytoplasmic tail in a 1:100 dilution with Diluting Buffer and 1% BSA and allowed to incubate for 45 min at 37° C. Wells are washed 3 times with Diluting Buffer and the bound polyclonal antibody is detected by the addition of a 1:4000 dilution of horse radish peroxidase conjugated to goat immunoglobulin directed against rabbit immunoglobulin. […] The lack of the addition of LFA-1 to the binding assay is used as a background control for all samples. A dose-response curve is obtained for all test compounds. Results of these tests are reported as Kd's in μM.

[2] = system: cell bound fibronectin receptor (VLA4) with fibronectin, SKW3 cells; assay: Inhibition of SKW3 cell binding to fibronectin (selectivity counter-assay); format: cell-based, human
In short: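 Plates coated with sICAM-1 (40 μg/mL) or fibronectin (100 μg/mL) for 1 h; SKW3 cells in RPMI/15% FBS activated with PMA (50 μg/mL final) added with compound, 2 h at 37° C. Unbound cells washed off; value is concentration (μM) giving 50% binding inhibition.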

[3] = system: allogeneic cell transplant response, popliteal lymph node; assay: In vivo allogeneic cell transplant model (popliteal lymph node weight); settings: Mus musculus, po; mice, per os, dose at which 50% inhibition is observed; read-out: Allogeneic Cell Transplantation Assay ACT ED50
Description: In vivo: Allogeneic Cell Transplant Model Purpose of Assay: The ability of cells to recognize other cells from self or from another genetically different individual (non-self) is an important property in maintaining the integrity of tissue and organ structure. The allogeneic cell transplant response is an important model for studies of transplant rejection and immunocompetence. This T-cell-mediated immune response can be induced in adult mice by the injection of lymphocytes from a histoincompatible mouse strain into the footpad . This response is characterized by T-cell proliferation which is limited to the popliteal lymph node that receives drainage from the injected footpad area. No in vitro system can completely duplicate this in vivo response. Thus, this animal model can be used to assess the ability of a test compound to suppress transplant rejection. Description of Assay Protocol: Experiments are conducted using male or female mice (20-26 grams). Any histoincompatible mouse strains suffice for donor and recipient populations. Typically DBA mice are used as donors and […] mice are used as recipients. A minimum of 1 week stabilization and conditioning period is required before use during which time the animals are maintained in accordance with the Animal Resource Center S.O.P. Each study utilizes 36 recipient mice divided into groups of 6. The tests last approximately four days. Donor mice are sacrificed by CO2 asphyxiation and spleens are removed and made into a cell suspension. The cells (1.0·10^7/metatarsal in 0.05 mL) are injected intra dermal (according to standard protocol) into the dorsal metatarsal skin of recipient mice. Four days later, the animals are sacrificed by CO2 asphyxiation and the popliteal nodes are removed and weighed. Groups of mice receiving putative immunosuppressive agents are dosed subcutaneously, intraperitoneally or orally one hour prior to cell injection and daily thereafter according to standard protocol. Student's T-test was used to determine significant differences between popliteal lymph nodes of groups of untreated mice and those mice treated with putative immunosuppressive agents (see: Kroczek, R. A.; Black, C. D. V.; Barbet, […]. Immunology, 1987, 139, 3597). Data are reported as the dose at which 50% inhibition is observed and the manner in which the compound was administered. In Table 23, the following legends are applicable: ^and=not determined. ^bpercent inhibition at 160 μg/mL. ^cno inhibition observed up to highest dose. Exact quantification not always possible due to intrinsic toxicity of compound (see MTT result). ^[…] inhibition (concentration in μM ). ^eapproximated from incomplete dose-response curve. ^fnot determined; compound is a synthesis intermediate.

T1 sequence (P20701 26-1170): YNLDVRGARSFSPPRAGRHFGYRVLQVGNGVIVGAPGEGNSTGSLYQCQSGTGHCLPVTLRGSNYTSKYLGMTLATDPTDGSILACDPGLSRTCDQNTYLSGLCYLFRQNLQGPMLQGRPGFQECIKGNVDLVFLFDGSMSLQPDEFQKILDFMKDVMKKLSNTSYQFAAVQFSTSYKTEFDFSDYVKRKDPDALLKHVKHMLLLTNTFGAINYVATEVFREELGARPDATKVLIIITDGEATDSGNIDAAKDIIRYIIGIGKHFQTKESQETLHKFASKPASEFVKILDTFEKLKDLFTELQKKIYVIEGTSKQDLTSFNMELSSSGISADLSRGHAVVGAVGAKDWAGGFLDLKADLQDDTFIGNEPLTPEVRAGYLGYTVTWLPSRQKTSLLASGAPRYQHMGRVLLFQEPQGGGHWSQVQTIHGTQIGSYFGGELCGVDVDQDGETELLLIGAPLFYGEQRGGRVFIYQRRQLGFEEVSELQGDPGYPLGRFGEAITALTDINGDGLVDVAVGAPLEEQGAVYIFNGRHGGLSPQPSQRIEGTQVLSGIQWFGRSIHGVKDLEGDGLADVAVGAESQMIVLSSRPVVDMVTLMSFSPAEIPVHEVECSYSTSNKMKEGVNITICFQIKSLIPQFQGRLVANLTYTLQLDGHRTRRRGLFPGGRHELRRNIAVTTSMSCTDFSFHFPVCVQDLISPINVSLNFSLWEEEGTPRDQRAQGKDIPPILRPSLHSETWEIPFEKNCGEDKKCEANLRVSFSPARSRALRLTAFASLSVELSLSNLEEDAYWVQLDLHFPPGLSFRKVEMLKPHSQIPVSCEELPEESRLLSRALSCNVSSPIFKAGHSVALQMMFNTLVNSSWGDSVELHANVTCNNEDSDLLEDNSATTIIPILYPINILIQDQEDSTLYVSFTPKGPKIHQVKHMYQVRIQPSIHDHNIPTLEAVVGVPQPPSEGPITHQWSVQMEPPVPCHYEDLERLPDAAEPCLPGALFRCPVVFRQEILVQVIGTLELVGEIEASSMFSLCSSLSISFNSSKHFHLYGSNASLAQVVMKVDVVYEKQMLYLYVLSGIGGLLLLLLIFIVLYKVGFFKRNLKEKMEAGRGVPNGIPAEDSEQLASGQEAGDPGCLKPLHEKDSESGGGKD
T1 sequence (P05107 23-769): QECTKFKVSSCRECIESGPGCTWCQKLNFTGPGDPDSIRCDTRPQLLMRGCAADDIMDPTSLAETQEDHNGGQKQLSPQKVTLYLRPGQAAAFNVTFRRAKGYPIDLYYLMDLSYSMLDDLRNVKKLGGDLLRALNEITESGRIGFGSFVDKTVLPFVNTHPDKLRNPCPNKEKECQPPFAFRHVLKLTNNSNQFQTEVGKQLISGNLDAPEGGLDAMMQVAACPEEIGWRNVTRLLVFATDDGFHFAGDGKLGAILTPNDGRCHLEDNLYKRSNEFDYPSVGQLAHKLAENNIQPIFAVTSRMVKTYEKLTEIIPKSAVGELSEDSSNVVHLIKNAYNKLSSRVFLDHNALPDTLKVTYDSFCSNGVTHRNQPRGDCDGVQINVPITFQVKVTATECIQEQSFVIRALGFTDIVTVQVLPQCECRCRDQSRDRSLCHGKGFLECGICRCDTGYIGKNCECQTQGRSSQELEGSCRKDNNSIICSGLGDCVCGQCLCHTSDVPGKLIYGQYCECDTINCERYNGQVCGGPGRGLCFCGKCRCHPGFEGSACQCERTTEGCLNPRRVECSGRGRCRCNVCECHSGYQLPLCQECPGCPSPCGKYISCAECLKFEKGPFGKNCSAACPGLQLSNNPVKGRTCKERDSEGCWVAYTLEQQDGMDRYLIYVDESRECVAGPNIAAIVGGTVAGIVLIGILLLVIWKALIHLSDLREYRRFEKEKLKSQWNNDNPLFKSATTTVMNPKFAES

SMILES | Kd [1] [nM] | IC50 ([2]; Homo sapiens, SKW3, values marked c: no inhibition observed up to highest dose, read-out: Assay to Detect SKW3 Cells Binding to FIBRONECTIN IC50) [nM] | ED50 [3] [mg/kg] | Cellular Toxicity Assay MTT LD50 (SKW3 cells) [µM] | Assay to Detect SKW3 Cells Binding to FIBRONECTIN IC50 ([2]; values marked c: no inhibition observed up to highest dose)
CC(=O)N1C(=O)N(c2cc(Cl)cc(Cl)c2)C(=O)[C@@]1(C)Cc1ccc(Br)cc1 [Example 102] | 60 | > 200000 | ~25 | >400 | 
C[C@]1(Cc2ccc(Br)cc2)NC(=O)N(c2cc(Cl)cc(Cl)c2)C1=O [Example 29] |  |  | ~60 | 63 to 125 | No inh^c
